Data from the supplement of paper PMC10307832.

Tests used:
Assay in all cases: relative viability (nuclei count vs DMSO), 5 days (fraction); higher = more cells survive
[1] = compound: C[As](C)SC[C@H](NC(=O)CC[C@H](N)C(=O)O)C(=O)NCC(=O)O [Darinaparsin] + Cc1nc(NC(=O)N2CCC[C@H]2C(N)=O)sc1-c1ccnc(C(C)(C)C(F)(F)F)c1 [Alpelisib] (partner 2 µM)
How it was run: (§1)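 Lung cancer cell lines were pin-tool dosed in 1536-well plates on the day after seeding, with either a lone drug or a fixed anchor-drug dose plus five library-drug doses (not always all listed) in √10 steps. Nuclei were counted on 4× images after 5 days. Relative viability is the ratio of treated-well to vehicle-well nuclei counts, with each value a median of duplicate plates.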

[2] = compound: CC1=C(C=C(C=C1)NC(=O)C2=CC(=CC=C2)C(C)(C)C#N)NC3=CC4=C(C=C3)N=CN(C4=O)C [AZ628] + CS(=O)(=O)N1CCN(Cc2cc3nc(-c4cccc5[nH]ncc45)nc(N4CCOCC4)c3s2)CC1 [Pictilisib] (partner 1 µM)
How it was run: as §1

[3] = compound: C1CC2=C(C1)C=C(C=C2)OC3=NC(=C4C(=N3)N(C=N4)CC5=CC=C(C=C5)C6=CC=CC=C6)N[C@@H](CC7=CC=CC=C7)CO [QS11] + Nc1nc2[nH]cc(CCc3ccc(C(=O)N[C@@H](CCC(=O)O)C(=O)O)cc3)c2c(=O)[nH]1 [Pemetrexed] (partner 0.2 µM)
How it was run: as §1

[4] = compound: CC1=C(C=C(C=C1)NC(=O)C2=CC(=CC=C2)C(C)(C)C#N)NC3=CC4=C(C=C3)N=CN(C4=O)C [AZ628] + COc1cc2c(Oc3ccc(NC(=O)C4(C(=O)Nc5ccc(F)cc5)CC4)cc3F)ccnc2cc1OCCCN1CCOCC1 [Foretinib] (partner 0.25 µM)
How it was run: as §1

| Cell Line | relative viability ([1]; first compound 0.08 µM) | relative viability ([1]; first compound 0.8 µM) | relative viability ([1]; first compound 2.53 µM) | relative viability ([1]; first compound 8 µM) | relative viability ([2]; first compound 0.08 µM) | relative viability ([2]; first compound 0.253 µM) | relative viability ([2]; first compound 0.8 µM) | relative viability ([2]; first compound 2.53 µM) | relative viability ([2]; first compound 8 µM) | relative viability ([3]; first compound 0.08 µM) | relative viability ([3]; first compound 0.8 µM) | relative viability ([3]; first compound 2.53 µM) | relative viability ([3]; first compound 8 µM) | relative viability ([4]; first compound 0.08 µM) | relative viability ([4]; first compound 0.253 µM) | relative viability ([4]; first compound 0.8 µM) | relative viability ([4]; first compound 2.53 µM) | relative viability ([4]; first compound 8 µM) | relative viability ([3]; first compound 0.253 µM) |
| --- | --- | --- | --- | --- | --- | --- | --- | --- | --- | --- | --- | --- | --- | --- | --- | --- | --- | --- | --- |
| HARA | 0.868 | 0.682 | 0.756 | 1.19 | 0.331 | 0.379 | 0.283 | 0.337 | 0.287 | 0.251 | 0.215 | 0.244 | 0.256 | 0.713 | 0.898 | 0.792 | 0.795 | 0.392 | – |
| HCC-15 | 0.914 | 0.95 | 0.867 | 1.08 | 0.729 | 0.533 | 0.52 | 0.553 | 0.33 | 0.213 | 0.223 | 0.274 | 0.227 | 1.08 | 0.984 | 0.871 | 0.868 | 0.467 | 0.232 |
| HCC-44 | 0.833 | 0.92 | 0.576 | 0.979 | 0.547 | 0.512 | 0.427 | 0.354 | 0.286 | 0.72 | 0.416 | 0.675 | 0.659 | – | – | – | – | – | 0.581 |
| HCC-78 | 0.363 | 0.301 | 0.358 | 0.259 | 0.373 | 0.21 | 0.211 | 0.228 | 0.231 | 0.918 | 0.894 | 0.936 | 0.857 | 0.732 | 0.748 | 0.715 | 0.621 | 0.67 | 0.935 |
| HCC-366 | 0.753 | 0.424 | 0.329 | 0.706 | 0.15 | 0.18 | 0.0993 | 0.126 | 0.0787 | 0.163 | – | 0.175 | 0.136 | 0.885 | 0.884 | 0.781 | 0.892 | 0.372 | 0.139 |
| HCC-827 | 1.05 | 1.04 | 1.01 | 1.04 | 0.98 | 0.994 | 0.988 | 0.984 | 0.826 | 0.262 | 0.258 | 0.257 | 0.35 | 0.982 | 0.933 | 0.967 | 1.02 | 0.715 | 0.274 |
| HOP-62 | 1.24 | 0.755 | 0.786 | 0.991 | 0.607 | 0.6 | 0.511 | 0.441 | 0.211 | 0.414 | 0.276 | 0.23 | 0.283 | 1.05 | 1.07 | 1.02 | 0.999 | 0.629 | 0.371 |
| IA-LM | 1.02 | 0.663 | 1.4 | 0.965 | 0.352 | 0.231 | 0.155 | 0.145 | 0.115 | – | – | – | – | 1.28 | 1.04 | 0.821 | 0.861 | 0.2 | – |
| LC-2-ad | 0.954 | 0.832 | 0.856 | 1.01 | 0.472 | 0.344 | 0.122 | 0.261 | 0.162 | 0.273 | 0.27 | 0.294 | 0.26 | 1.02 | 1.06 | 0.947 | 0.978 | 0.863 | 0.27 |
| NCI-H522 | – | – | – | – | – | – | – | – | – | 0.824 | 0.878 | 1 | 0.884 | – | – | – | – | – | 1.02 |
| NCI-H727 | 0.718 | 0.587 | 0.549 | 0.683 | 0.314 | 0.199 | 0.184 | 0.281 | 0.28 | – | – | – | – | 0.628 | 0.455 | 0.383 | 0.319 | 0.322 | – |
| NCI-H1299 | 1.09 | 1.18 | 0.904 | 1.18 | 0.643 | 0.464 | 0.306 | 0.283 | 0.167 | – | – | – | – | 1.12 | 1.3 | 1.3 | 1.24 | 0.58 | – |
| NCI-H1623 | – | – | – | – | – | – | – | – | – | – | – | – | – | 0.848 | 0.829 | 0.62 | 0.764 | 0.498 | – |
| NCI-H1648 | – | – | – | – | – | – | – | – | – | 0.762 | 0.637 | 0.748 | 0.875 | – | – | – | – | – | 0.713 |
| NCI-H1650 | – | – | – | – | 0.741 | 0.604 | 0.614 | 0.5 | 0.342 | 0.472 | 0.321 | 0.34 | 0.366 | 1.33 | 1.34 | 1.42 | 1.26 | 1.02 | 0.33 |
| NCI-H1703 | 0.612 | 0.345 | 0.283 | 0.39 | 0.231 | 0.235 | 0.235 | 0.197 | 0.251 | – | – | – | – | 0.327 | 0.41 | 0.415 | 0.302 | 0.413 | – |
| NCI-H1792 | 0.684 | 0.575 | 0.493 | 1.03 | 0.251 | 0.296 | 0.212 | 0.223 | 0.149 | – | 0.925 | 0.629 | 0.514 | – | – | – | – | – | 0.603 |
| NCI-H2342 | – | – | – | – | – | – | – | – | – | 0.77 | 0.809 | 0.797 | 0.795 | 1.08 | 1.01 | 1.16 | 1.24 | 1.12 | 0.829 |
| SW 900 | – | – | – | – | – | – | – | – | – | 0.384 | 0.465 | 0.503 | 0.514 | 0.931 | 0.874 | 0.971 | 0.685 | 0.619 | 0.456 |
